This is an account of results in article PMC5655428, “Discovery and pharmacological characterization of a new class of prolyl-tRNA synthetase inhibitor for anti-fibrosis therapy” (PLoS ONE, 2017).

The test system of assay [1] is differentiated human skin myofibroblast. Kind of assay: reverse fibrosis: α-SMA protein in TGF-β-induced differentiated skin myofibroblasts (Protocol 2). The class given is cell-based. The following applies: TGF-β 1 ng/mL 48 h, then compound 48 h without TGF-β. As for the experimental part: Protocol 2: Cells were allowed to adhere overnight before being replaced with serum-free FBM for 24 h. Cells were then treated with TGF-β (1 ng/mL) for 48 h to induce differentiation to myofibroblast with expressing α-SMA protein. The medium was then removed, and the cells were subsequently treated with or without samples (1–300 nM) in serum-free FBM for an additional 48 h. Cell lysates were prepared with cell lysis buffer (Cell Signaling Technology, Beverly, MA, USA) and subjected to α-SMA ELISA system (Abnova, Taipei, Taiwan) and Pro-type I Collagen α1 (pro-COL1A1) SimpleStep ELISA Kit (Abcam, Cambridge, UK, USA) according to the manufacturer's protocol.

Assay [2] deals with primary human skin fibroblast. Kind of assay: mRNA expression of fibrosis-related genes by real-time quantitative RT-PCR. The class given is cell-based. The note with it: 1-300 nM, TGF-β 1 ng/mL, 24 h. On the procedure:
Cells were allowed to adhere overnight before being replaced with serum-free FBM for 24 h. Serum-starved cells were first pretreated with samples in DMSO at concentrations between 1 and 300 nM for 30 min and then stimulated with 1 ng/mL TGF-β for 24 h. Then total RNA was collected from the cells by RNeasy 96 Kit (Qiagen, Valencia, CA, USA) and DNaseI (Qiagen) according to the manufacturer's protocol.
Total RNA was isolated from in vivo samples using ISOGEN II (Nippongene) according to the manufacturer's instructions. In vitro RNA samples were prepared as mentioned above. High Capacity cDNA Reverse Transcription Kit (Life Technologies, Carlsbad, CA, USA) was used for cDNA synthesis. Real-time quantitative RT-PCR reactions were performed as a TaqMan method on a ViiA 7 real-Time PCR System (Life Technologies), using TaqMan Fast Advanced Master Mix (Lifer Technologies) with specific primers on TaqMan Gene Expression Assays (Life Technologies) according to the manufacturer's manual. FAM-probed primers were used: COL1A1, Hs00164004_m1; α-SMA/ACTA2, Hs00426835_g1; fibroblast growth factor 2 (FGF2), Hs00266645_m1; Smad specific E3 ubiquitin protein ligase 2 (SMURF2), Hs00224203_m1; DDIT3, Hs00358796_g1; and glyceraldehyde 3-phosphate dehydrogenase (GAPDH), 4326317E for human in vitro cell assay. FAM-probed and TAMRA-quenched primers (Sigma-Aldrich Japan, Tokyo, Japan) were used: Col1a1, NM_007742; type I collagen alpha 2 (Col1a2), NM_007743; α-Sma/Acta2, NM_007392; and Gapdh, NM_008084 for mouse in vivo assay (S1 Table). The relative mRNA level of the target genes was calculated by the comparative threshold cycle (Ct) method using GAPDH (Gapdh) as an internal control for normalization. The fold change in the expression of each target gene was calculated by the following formula: relative quantification (RQ) = 2^-ΔΔCt.

The next assay addresses T1, human PRS (Homo sapiens, UniProt P07814).
T1 construct: His-Avi-tag (N); made in house; host or cells: E. coli BL21 (DE3)
T1 sequence (P07814 998-1512): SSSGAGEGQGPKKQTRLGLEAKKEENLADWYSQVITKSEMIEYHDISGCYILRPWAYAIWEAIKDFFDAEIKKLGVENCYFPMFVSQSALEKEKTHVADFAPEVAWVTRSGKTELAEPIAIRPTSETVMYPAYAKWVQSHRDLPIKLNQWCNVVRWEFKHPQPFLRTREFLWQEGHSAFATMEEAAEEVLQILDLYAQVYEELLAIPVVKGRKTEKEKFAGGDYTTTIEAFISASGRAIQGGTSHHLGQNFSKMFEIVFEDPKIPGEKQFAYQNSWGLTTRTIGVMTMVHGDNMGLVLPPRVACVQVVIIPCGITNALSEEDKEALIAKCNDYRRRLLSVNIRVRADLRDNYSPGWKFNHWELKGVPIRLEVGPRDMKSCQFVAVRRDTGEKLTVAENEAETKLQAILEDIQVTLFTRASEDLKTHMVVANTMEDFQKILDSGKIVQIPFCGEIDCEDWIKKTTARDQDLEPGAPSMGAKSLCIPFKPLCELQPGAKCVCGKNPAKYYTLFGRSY
Nature of the assay: ATP/PPi exchange assay (PRS enzymatic inhibition). The note with it: ATP/PPi exchange method; duplicate. The class given is biochemical. As for the experimental part:
The expression plasmid of human PRS (residues 998–1512, Genbank Accession No. NM_152621) was constructed in a pET21a vector (Novagen, San Diego, CA, USA) to express in E.coli BL21 (DE3) (Nippongene, Tokyo, Japan) as a fusion protein with His-Avi-tag at N-terminus. After culture, the cells were homogenized in a lysis buffer containing 50 mM Tris-HCl (pH 8.0 at 25°C), 150 mM NaCl, 5 U/mL Benzonase, 20 mM imidazole, and 1 mM DTT. Cell homogenates were centrifuged, and the supernatant was applied to NiNTA purification, followed by gel filtration with Superdex200. Proteins were stored in a buffer containing 50 mM Tris-HCl (pH 8.0 at 25°C), 150 mM NaCl, 10% glycerol, and 1 mM DTT at -80°C. The protein concentration was determined with the BCA Protein Assay Kit (Pierce Biotechnology, Inc., Rockford, IL, USA) according to the instruction manual.
The test compounds were dissolved in 5 μL of an assay buffer [50 mM Tris-HCl (pH 7.5), 20 mM KCl, 1 mM DTT, and 0.01% Tween 20] and incubated with 5 μL of 40 nM PRS enzyme dissolved in the assay buffer supplemented with 40 mM MgCl2 for 60 minutes. […] Radioactivities were measured using the TopCount detector (PerkinElmer).
The inhibitory activity was calculated as follows: % inhibition = (A—B) / (A—C) × 100, where, A, B, and C are signals with vehicle, test sample, and without reaction, respectively. […]

On to `Cn1cc(-c2cc(F)cc(CNC(=O)c3nccc4nc(C5CCCC5)[nH]c34)c2)cn1` [T-3833261, 2-Cyclopentyl-N-(3-fluoro-5-(1-methyl-1H-pyrazol-4-yl)benzyl)-3H-imidazo[4,5-c]pyridine-4-carboxamide], for which, in assay [1], the “concentration promoting the reduction of α-SMA protein in differentiated myofibroblasts” value was 100 nM and the “concentration reducing α-SMA levels to that of non-stimulated controls” value turned out to be 300 nM. In addition, in assay [2], the “COL1A1 mRNA expression” value is reported as “suppressed expression of these fibrotic genes”; the “DDIT3 mRNA expression” value was “dose-dependently increased DDIT3 expression”; the “FGF2 mRNA expression” value is “dose-dependently increased SMURF2 and FGF2 expressions”; the “SMURF2 mRNA expression” value is “dose-dependently increased SMURF2 and FGF2 expressions”. The “α-SMA mRNA expression” value in assay [2] is listed as “suppressed expression of these fibrotic genes”. Moreover, it took 3.6 nM to reach half-maximal inhibition at human PRS (IC50).

As to `O=C(CC1NCCCC1O)Cn1cnc2cc(Br)c(Cl)cc2c1=O` (stereo not shown) [HF, Halofuginone, reference compound], in assay [1], the “concentration promoting the reduction of α-SMA protein in differentiated myofibroblasts” value is on record as 100 nM and the “concentration reducing α-SMA levels to that of non-stimulated controls” value is 300 nM. In addition, in assay [2], the “COL1A1 mRNA expression” value is reported as “reduced to near the level of non-stimulated control”; the “DDIT3 mRNA expression” value is reported as “dose-dependently increased DDIT3 expression”; the “FGF2 mRNA expression” value was “dose-dependently increased SMURF2 and FGF2 expressions”; the “SMURF2 mRNA expression” value is “dose-dependently increased SMURF2 and FGF2 expressions”. In assay [2], the “α-SMA mRNA expression” value is “suppressed TGF-β-induced expression of α-SMA”. The same molecule showed an IC50 against human PRS of 8.7 nM.

As a reminder, the IC50 is the concentration at which inhibition is half-maximal. Low values mean greater potency, high ones weaker potency.
